Reference: patent US3950427A, “Araliphatic ketones and carbinols” (Boehringer Ingelheim GmbH, priority 1973, dated 1976)
Read-outs that look alike come from different tables or passages of the source.

Legend:
Assay type in all cases: in vivo, rat (male FW 49)
[1] = tested on: Kaolin edema and carrageenin edema of the hind paw of the rat; experiment: Average value of kaolin edema and carrageenin edema; conditions: per os, Table I; for ED35: Rattus norvegicus
Protocol: (§1) The compunds were tested for their anti-exudative effect on Kaolin-induced edema and carrageenin-induced edema in the hind paw of the rat after oral administration to the rat.
(§2) The kaolin edema was induced according to the method given by Hillebrecht [Arzneimittel-Forsch. 4, 607 (1954)] by subplanar injection of 0.05 ml of a 10% suspension of kaolin in a 0.85% sodium chloride solution. Measurement of the thickness of the paws was effected using the technique of Doepfner and Cerletti [Int. Arch. Allergy Immunol. 12, 89 (1958)].
(§3) The test compound was administered orally to male FW 49 rats weighing 120-150 gm by means of an esophageal tube 30 minutes before inducing the edema. 5 hours after inducing the edema the average size of the swelling in the rats treated with the test compound was compared with the size of the swelling in blind-treated control animals. By graphic extrapolation the dose leading to a 35% of the swelling (ED35) was calculated from the percentage reduction in the size of the swelling caused by the administration of different doses.
(§4) The carrageenin edema was induced according to the method of Winder et al. [Proc. Soc. exp. Biol. Med. 111, 544 (1962)] by subplanar injection of 0.05 ml of a 1% solution of carrageenin in a 0.85% solution of sodium chloride. The test compound was administered 60 minutes before the provocation of the edema.
(§5) For the calculation of the reductive effect on the edema, the size of the swelling was measured 3 hours after the provocation of the edema. All other details were the same as described above in the case of the kaolin edema.

[2] = tested on: Kaolin-induced edema of the hind paw of the rat; experiment: Kaolin-induced edema of the hind paw of the rat (anti-exudative effect); conditions: 30 minutes before inducing edema, swelling 5 hours after; for ED35: Rattus norvegicus, po, 5 h, read-out: Kaolin edema ED35 per os; for Kaolin edema ED35 per os: oral
Protocol: as §1
a. Kaolin-induced edema of the hind paw of the rat
as §2, §3

[3] = tested on: Carrageenin-induced edema of the hind paw of the rat; experiment: Carrageenin-induced edema of the hind paw of the rat (anti-exudative effect); conditions: 60 minutes before provocation, swelling 3 hours after; for ED35: Rattus norvegicus, po, 3 h, read-out: Carrageenin edema ED35 per os; for Carrageenin edema ED35 per os: oral
Protocol: as §1, §3
b. Carrageenin-induced edema of the hind paw of the rat
as §4, §5

[4] = tested on: Adjuvant arthritis-rat; experiment: Adjuvant arthritis test on rats (M.butyricum); conditions: po, 504 h, 21st day, once daily for 20 days by esophageal tube
Protocol: The adjuvant arthritis tests on rats were performed in analogy to the procedure described by Rosenthale and Nagra [Proc. Soc. exp. Biol. Med. 125, 149 (1967)].
Male FW 49-rats were given a subplantar injection of 0.1 ml of a 1% suspension of M.butyricum in viscous paraffin oil in a hind paw. The test compound was administered, beginning with the M.butyricum injection, once daily for 20 days by esophageal tube.
On the 21st day after inducing the arthritis, the volumes of the right paw (non-specific primary reaction at the place of injection) and the left paw (immunologically predicated specific secondary reaction) of the animals treated with the test compound were compared with those of the blind-treated control animals. From the swelling reduction obtained with the various doses, an ED50 was graphically determined.

[5] = left paw volume, read-out: Adjuvant arthritis-rat ED50 per os, Secondary reaction
[6] = right paw volume, read-out: Adjuvant arthritis-rat ED50 per os, Primary reaction

## CC(=O)/C=C(\C)c1ccc([C@@H]2CCCC[C@H]2C)cc1 (relative stereo) [BB, (e,e)-4-[4-(2-methyl-cyclohexyl)-phenyl]-3-pentene-2-one]
[1]
  ED35: 16 mg/kg
[2]; Table I
  ED35: 19 mg/kg
[3]; Table I
  ED35: 13 mg/kg

## CC(O)/C=C/c1ccc(-c2ccccc2)c(F)c1 (centres unmarked) [A, (e)-4-(2-fluoro-4-biphenylyl)-3-butene-2-ol]
[1]
  ED35: 13.7 mg/kg
[2]; Table I
  ED35: 15 mg/kg
[3]; Table I
  ED35: 12.4 mg/kg

## CC(O)CC(C)c1ccc(C2CCCCC2)c(Br)c1 (centres unmarked) [AA, 4-(3-bromo-4-cyclohexyl-phenyl)-2-pentanol]
[1]
  ED35: 23.2 mg/kg
[2]; Table I
  ED35: 28 mg/kg
[3]; Table I
  ED35: 18.5 mg/kg

## CC(O)CCc1ccc(-c2ccccc2)c(F)c1 (centres unmarked) [B, 4-(2-fluoro-4-biphenylyl)-2-butanol]
[1]
  ED35: 14 mg/kg
[2]; Table I
  ED35: 16 mg/kg
[3]; Table I
  ED35: 12 mg/kg

## CC(O)CCCCCCc1ccc(-c2ccccc2F)cc1 (centres unmarked) [C, 8-(2'-fluoro-4-biphenylyl)-2-octanol]
[1]
  ED35: 16 mg/kg
[2]; Table I
  ED35: 15 mg/kg
[3]; Table I
  ED35: 17 mg/kg

## CC(=O)CC(C)c1ccc(C2CCCCC2C)cc1 (centres unmarked) [CC, (e)-4-[4-(2-methyl-cyclohexyl)-phenyl]-2-pentanone]
[1]
  ED35: 25 mg/kg
[2]; Table I
  ED35: 29 mg/kg
[3]; Table I
  ED35: 21 mg/kg

## CC(=O)CCCCc1ccc(-c2ccccc2F)cc1 [D, 6-(2'-fluoro-4-biphenylyl)-2-hexanone]
[1]
  ED35: 9.75 mg/kg
[2]; Table I
  ED35: 9 mg/kg
[3]; Table I
  ED35: 10.5 mg/kg

## CC(=O)/C=C(\C)c1ccc(CC(C)C)c(Cl)c1 [DD, (e)-4-(3-chloro-4-isobutyl-phenyl)-3-pentene-2-one]
[1]
  ED35: 34.5 mg/kg
[2]; Table I
  ED35: 50 mg/kg
[3]; Table I
  ED35: 19 mg/kg

## CC(=O)CC(C)c1ccc(-c2ccccc2)cc1 (centres unmarked) [E, 4-(4-biphenylyl)-2-pentanone]
[1]
  ED35: 18 mg/kg
[2]; Table I
  ED35: 21 mg/kg
[2]; Table II
  ED35: 21 mg/kg
[4]; [5]
  ED50: < 4 mg/kg
[4]; [6]
  ED50: < 4 mg/kg
[3]; Table I
  ED35: 15 mg/kg
[3]; Table II
  ED35: 15 mg/kg

## C/C(=C\C(C)O)c1ccc(CC(C)C)c(Cl)c1 (centres unmarked) [EE, (e)-4-(3-chloro-4-isobutyl-phenyl)-3-pentane-2-ol]
[1]
  ED35: 53 mg/kg
[2]; Table I
  ED35: 54 mg/kg
[3]; Table I
  ED35: 52 mg/kg

## CC(=O)CCCCCCc1ccc(-c2ccccc2F)cc1 [F, 8-(2'-fluoro-4-biphenylyl)-2-octanone]
[1]
  ED35: 12.2 mg/kg
[2]; Table I
  ED35: 9.8 mg/kg
[3]; Table I
  ED35: 14.5 mg/kg

## C/C(=C\C(C)O)c1ccc(C2CCCCC2)cc1 (centres unmarked) [FF, (e)-4-(4-cyclohexyl-phenyl)-3-pentene-2-ol]
[1]
  Average value ED35: 42 mgm/kg
[2]; Table I
  Kaolin edema ED35 per os: 49 mgm/kg
[3]; Table I
  Carrageenin edema ED35 per os: 35 mgm/kg

## CC(=O)/C=C(\C)c1ccc(-c2ccccc2)cc1 [G, (e)-4-(4-biphenylyl)-3-pentene-2-one]
[1]
  ED35: 16.1 mg/kg
[2]; Table I
  ED35: 23.5 mg/kg
[3]; Table I
  ED35: 8.6 mg/kg

## CC(=O)/C=C(\C)c1ccc(-c2ccccc2F)cc1 [H, (e)-4-(2'-fluoro-4-biphenylyl)-3-pentene-2-one]
[1]
  ED35: 22.9 mg/kg
[2]; Table I
  ED35: 37 mg/kg
[2]; Table II
  ED35: 37 mg/kg
[4]; [5]
  ED50: < 1 mg/kg
[4]; [6]
  ED50: < 2 mg/kg
[3]; Table I
  ED35: 8.9 mg/kg
[3]; Table II
  ED35: 11 mg/kg

## CC(O)CC(C)c1ccc(-c2ccccc2)c(F)c1 (centres unmarked) [I, 4-(2-fluoro-4-biphenylyl)-2-pentanol]
[1]
  ED35: 16.8 mg/kg
[2]; Table I
  ED35: 17 mg/kg
[3]; Table I
  ED35: 16.5 mg/kg

## C/C(=C\C(C)O)c1ccc(-c2ccccc2F)cc1 (centres unmarked) [K, (e)-4-(2'-fluoro-4-biphenylyl)-3-pentene-2-ol]
[1]
  ED35: 15.2 mg/kg
[2]; Table I
  ED35: 17.5 mg/kg
[2]; Table II
  ED35: 17.5 mg/kg
[4]; [5]
  ED50: < 2 mg/kg
[4]; [6]
  ED50: < 1.5 mg/kg
[3]; Table I
  ED35: 12.8 mg/kg
[3]; Table II
  ED35: 17 mg/kg

## CC(=O)/C=C(\C)c1ccc(-c2ccccc2)c(Cl)c1 [L, (e)-4-(2-chloro-4-biphenylyl)-3-pentene-2-one]
[1]
  ED35: 10.6 mg/kg
[2]; Table I
  ED35: 15.5 mg/kg
[3]; Table I
  ED35: 5.6 mg/kg

## C/C(=C\C(C)O)c1ccc(-c2ccccc2)c(Cl)c1 (centres unmarked) [M, (e)-4-(2-chloro-4-biphenylyl)-3-pentene-2-ol]
[1]
  ED35: 24.5 mg/kg
[2]; Table I
  ED35: 26 mg/kg
[3]; Table I
  ED35: 23 mg/kg

## CC(=O)CC(C)c1ccc(-c2ccccc2)c(Cl)c1 (centres unmarked) [N, 4-(2-chloro-4-biphenylyl)-2-pentanone]
[1]
  ED35: 24 mg/kg
[2]; Table I
  ED35: 31.5 mg/kg
[3]; Table I
  ED35: 16.5 mg/kg

## CC(O)CC(C)c1ccc(-c2ccccc2)c(Cl)c1 (centres unmarked) [O, 4(2-chloro-4-biphenylyl)-2-pentanol]
[2]; Table I
  ED35: 48 mg/kg

## CC(=O)/C=C(\C)c1ccc(C2CCCCC2)c(Cl)c1 [P, (e)-4-(3-chloro-4-cyclohexyl-phenyl)-3-pentene-2-one]
[1]
  ED35: 12.8 mg/kg
[2]; Table I
  ED35: 17 mg/kg
[2]; Table II
  ED35: 17 mg/kg
[4]; [5]
  ED50: < 0.6 mg/kg
[4]; [6]
  ED50: < 0.7 mg/kg
[3]; Table I
  ED35: 8.6 mg/kg
[3]; Table II
  ED35: 8.6 mg/kg

## CC(=O)CC(C)c1ccc(C2CCCCC2)c(Cl)c1 (centres unmarked) [Q, 4-(3-chloro-4-cyclohexyl-phenyl)-2-pentanone]
[1]
  ED35: 3.75 mg/kg
[2]; Table I
  ED35: 5 mg/kg
[2]; Table II
  ED35: 5 mg/kg
[4]; [5]
  ED50: < 0.2 mg/kg
[4]; [6]
  ED50: < 0.4 mg/kg
[3]; Table I
  ED35: 2.5 mg/kg
[3]; Table II
  ED35: 2.5 mg/kg

## C/C(=C\C(C)O)c1ccc(C2CCCCC2)c(Cl)c1 (centres unmarked) [R, (e)-4-(3-chloro-4-cyclohexyl-phenyl)-3-pentene-2-ol]
[1]
  ED35: 3.95 mg/kg
[2]; Table I
  ED35: 4.8 mg/kg
[2]; Table II
  ED35: 4.8 mg/kg
[4]; [5]
  ED50: < 0.7 mg/kg
[4]; [6]
  ED50: < 0.3 mg/kg
[3]; Table I
  ED35: 3.1 mg/kg
[3]; Table II
  ED35: 3.1 mg/kg

## CC(O)CC(C)c1ccc(C2CCCCC2)c(Cl)c1 (centres unmarked) [S, 4-(3-chloro-4-cyclohexyl-phenyl)-2-pentanol]
[1]
  ED35: 7.3 mg/kg
[2]; Table I
  ED35: 7.6 mg/kg
[3]; Table I
  ED35: 7 mg/kg

## CC(=O)/C=C(\C)c1ccc(C2CCCCC2)cc1 [T, (e)-4-(4-cyclohexyl-phenyl)-3-pentene-2one]
[1]
  ED35: 12.2 mg/kg
[2]; Table I
  ED35: 12.5 mg/kg
[3]; Table I
  ED35: 12 mg/kg

## CC(=O)CC(C)c1ccc(C2CCCCC2)cc1 (centres unmarked) [U, 4-(4-cyclohexyl-phenyl)-2-pentanone]
[2]; Table I
  ED35: 15 mg/kg

## C/C(=C\C(C)O)c1ccc(C2CCCCC2)cc1 (centres unmarked) [V, (e)-4-(4-cyclohexyl-phenyl)-3-pentene-2-ol]
[1]
  Average value ED35: 10.45 mgm/kg
[2]; Table I
  Kaolin edema ED35 per os: 13.3 mgm/kg
[3]; Table I
  Carrageenin edema ED35 per os: 7.6 mgm/kg

## CC(O)CC(C)c1ccc(C2CCCCC2)cc1 (centres unmarked) [W, 4-(4-cyclohexyl-phenyl)-2-pentanol]
[2]; Table I
  ED35: 26 mg/kg

## CC(=O)/C=C(\C)c1ccc(C2CCCCC2)c(Br)c1 [X, (e)-4-(3-bromo-4-cyclohexyl-phenyl)-3-pentene-2-one]
[1]
  ED35: 22 mg/kg
[2]; Table I
  ED35: 22 mg/kg
[3]; Table I
  ED35: 22 mg/kg

## CC(=O)CC(C)c1ccc(C2CCCCC2)c(Br)c1 (centres unmarked) [Y, 4-(3-bromo-4-cyclohexyl-phenyl)-2-pentanone]
[2]; Table I
  ED35: 13 mg/kg

## C/C(=C\C(C)O)c1ccc(C2CCCCC2)c(Br)c1 (centres unmarked) [Z, (e)-4-(3-bromo-4-cyclohexyl-phenyl)-3-pentene-2-ol]
[2]; Table I
  ED35: 16 mg/kg
